# Assays:
# [1] = NO˙ radical scavenging assay (Griess reaction); format: biochemical; conditions: 100 µL of test solution 1 mg/mL in DMSO, 150 min, pH 7.4
# Method: Scavenging of the NO˙ radical was performed according to some adapted protocols reported in the literature, based on the nitroprusside decomposition at physiological pH and colorimetric quantification of the resulted products using the Griess reaction.
# Over 200 µL of 10 mM sodium nitroprusside, 100 µL of test solutions (1 mg/mL in DMSO), and 400 µL phosphate-buffered saline (PBS, pH = 7.4) were added. The mixture was then incubated at room temperature for 150 min on a rotating shaker (GFL Gesellschaft für Labortechnik, Burgwedel, Germany). After that, 1 mL of sulfanilic acid 0.33% in 20% acetic acid was added and after 5 min, 1 mL of naphthylethylenediamine […] 0.1% was added to all test tubes. After 30 min, the absorbance of the sample, given by the chromophore (azo dye) formed during the diazotization of nitrite ions resulting from decomposition of sodium nitroprusside with sulfanilic acid and coupled with naphthylethylenediamine, was measured at 546 nm. The NO˙ radical scavenging activity of the tested compounds was calculated using Equation (3):(3) NO˙ scavenging (%)=control absorbance−sample absorbance/control absorbance×100
# [2] = DPPH˙ radical scavenging assay; format: biochemical; conditions: for IC50: DPPH˙ scavenging
# Method: The 2,2-diphenyl-1-picrylhydrazyl (DPPH˙) radical scavenging assay is based on the transfer of one hydrogen from the analyzed compound to the violet radical DPPH˙. This will convert it to a yellow compound, the change in absorbance being proportional to the amount of DPPH˙ neutralized, according to Brand-Williams et al..
# The preparation of the DPPH˙ reagent was previously reported by our group. […] Over the previous quantities, DMSO was added until a total volume of 50 µL was obtained in all cuvettes, and 1950 µL of DPPH˙ solution was added to all cuvettes; then, they were shaken for well over 10 min in the dark at room temperature. The absorbances of the solutions were measured at λ = 517 nm. The DPPH˙ radical scavenging activity of evaluated compounds was calculated using Equation (2):(2) DPPH scavenging (%)=control absorbance−sample absorbance/control absorbance×100
# Fe^2+ chelation assay = format: biochemical
# Method: The protocol used for assessing Fe^2+ chelating capacity of the compounds was adapted from a report of Benzie and Strain and previously reported by our group. The iron(II) chelation ability of compounds was calculated using Equation (7):(7) iron chelation (%)=control absorbance−sample absorbance/control absorbance×100
# The chelating potential for the ferrous ions of the new compounds was determined, based on their competition for Fe^2+ with ferrozine.
# [3] = DPPH˙ radical scavenging by cyclic voltammetry
# Method: The antioxidant properties were evaluated in terms of their activity against some free radicals, and other compounds reported in the literature, relevant for this purpose, such as: • ferric ions (Fe^3+)—used to test the reduction of the antioxidant character of the compounds; • DPPH˙ free radical– used to test the scavenging effect of the compounds on this radical; • hydrogen peroxide (H2O2)—used to test the scavenging effect of the synthesized molecules on this compound; • 2,2,6,6-tetramethylpiperidinyl-1-oxy (TEMPO)—used to test the scavenging effect of the synthesized molecules on this compound.
# The radical scavenging properties of the novel compounds and the other antioxidants were determined using a stock DPPH˙ radical solution prepared in absolute ethanol. The antioxidant samples were mixed with DPPH˙ solution and HClO4 electrolyte and incubated in the dark for 30 min. The remaining redox activity of DPPH was measured by cycling the potential between −0.7 V and 1.2 V, with a scan rate of 0.1 V/s.
# The nitrogen-centered 2-2-diphenyl-1-picrylhydrazyl radical (DPPH˙) based assay is one of the most commonly employed method to evaluate the ability of a compound to scavenge or neutralize free radicals based on the reduction of the radical.
# Taking into account the redox activity of DPPH˙, its diminution by an antioxidant can also be followed by CV, which is expected to show changes in the voltammetric peaks. Figure A5 reports the electrochemical study of initial electrooxidation of DPPH˙ and the novel compounds compared to remaining peaks after their incubation for 30 min. The decrease of all the peaks after mixture incubation indicates the partial consumption of DPPH˙.
# [4] = Cyclic voltammetry of the compounds on graphite-based SPE; format: physicochemical; conditions: CV, 0.1 M HClO4, graphite-based SPE
# Method: The evaluated compounds’ stock solutions used were prepared at a concentration of 5 mM. To test their redox properties, dilutions of 0.5 mM and 2 mM were prepared in 0.1 M HClO4 electrolyte (pH = 1.2). Screen-printed electrodes (SPEs; Metrohm DropSens, Oviedo, Spain) (planar electrodes) with graphite and gold working electrodes were used. Cyclic voltammetry (CV) and differential pulse voltammetry (DPV) were the electrochemical methods applied. The experimental conditions for each test are mentioned near the corresponding data (Appendix A).
# In Figure 2, the cyclic voltammograms (CVs) for each of the compounds considered in this study, compared individually with the voltammogram obtained in the electrolyte (0.1 M HClO4), are presented. Thus, the oxidation/reduction peaks corresponding to the electrochemical transformations suffered by each compound can be observed in the potential range considered, in an acidic environment (low pH). From Figure 3, where the voltammograms of all eight compounds were presented together, a similarity is observed between 8a and 8b, and among the other compounds, whereas 5a and 5b can be noted as having the highest oxidation signals.
# [5] = compound + DPPH, 30 min, 1st Ered
# [6] = compound + DPPH, 30 min, 1st Ired
# [7] = compound + DPPH, 30 min, 2nd Eox
# [8] = compound alone, 2nd Ered column
# [9] = compound + DPPH, 30 min, 3rd Eox column
# [10] = compound + DPPH, 30 min, 3rd Iox column
# [11] = compound + DPPH, after 30 min of reaction, 1st Eox column
# [12] = compound + DPPH, after 30 min of reaction, 1st Iox column
# [13] = compound alone 0.5 mM in 0.1 M HClO4, 1st Eox column
# [14] = compound alone 0.5 mM in 0.1 M HClO4, 1st Iox column
structure (smiles),measurement,setting,value
"Br.NC(=O)c1cc(-c2csc(N/N=C/c3ccc(O)cc3O)n2)ccc1O [Compound 7b, (E)-1-(4-(3-carbamoyl-4-hydroxyphenyl)thiazol-2-yl)-2-(2,4-dihydroxybenzylidene) hydrazin-1-ium bromide]",% of NO˙ Scavenged,[1],26.33%
same,% of DPPH˙ Scavenged,[2]; 1 µg/mL,24.01%
same,% of DPPH˙ Scavenged,[2]; 1.5 µg/mL,26.00%
same,% of DPPH˙ Scavenged,[2]; 2 µg/mL,30.41%
same,% of DPPH˙ Scavenged,[2]; 3 µg/mL,35.81%
same,% of DPPH˙ Scavenged,[2]; 5 µg/mL,51.80%
same,IC50,[2],4.84 µg/mL
same,"Chelation Capacity (%), ferrous ions",Fe^2+ chelation assay; 50 µg/mL,0.07%
same,"Chelation Capacity (%), ferrous ions",Fe^2+ chelation assay; 100 µg/mL,3.44%
same,"Chelation Capacity (%), ferrous ions",Fe^2+ chelation assay; 150 µg/mL,9.13%
same,"Chelation Capacity (%), ferrous ions",Fe^2+ chelation assay; 200 µg/mL,16.28%
same,Iox (μA),"[3]; compound + DPPH, 30 min",9.076 μA
same,Ered (V),[3]; [5],0.291 V
same,Ired (μA),[3]; [6],−7.43 μA
same,Eox (V),[3]; [7],0.359 V
same,Iox (μA),[3]; compound alone,15.65 μA
same,Eox (V),"[3]; compound alone, 2nd Eox",0.342 V
same,Ered (V),[3]; [8],0.276 V
same,Ired (μA),"[3]; compound alone, 2nd Ired",−2.54 μA
same,Eox (V),[4]; 1st oxidation peak,0.267 V
same,Iox (μA),[4]; 1st oxidation peak,13.22 μA
same,Ired (μA),[4]; 1st reduction peak,−0.119 μA
same,Eox (V),[4]; 2nd oxidation peak,0.412 V
same,Iox (μA),[4]; 2nd oxidation peak,15.78 μA
same,Ired (μA),[4]; 2nd reduction peak,0.078 μA
same,Eox (V),[4]; 3rd oxidation peak,0.543 V
same,Iox (μA),[4]; 3rd oxidation peak,6.385 μA
same,Ired (μA),[4]; 3rd reduction peak,0.201 μA
"C/C(=N\Nc1nc(-c2ccc(O)c(O)c2)cs1)c1ccc(O)cc1O.Cl [Compound 8a, (E)-2-(1-(2,4-dihydroxyphenyl)ethylidene)-1-(4-(3,4-dihydroxyphenyl)thiazol-2-yl)hydrazin-1-ium chloride]",% of NO˙ Scavenged,[1],32.72%
same,% of DPPH˙ Scavenged,[2]; 1 µg/mL,25.05%
same,% of DPPH˙ Scavenged,[2]; 1.5 µg/mL,31.43%
same,% of DPPH˙ Scavenged,[2]; 2 µg/mL,36.02%
same,% of DPPH˙ Scavenged,[2]; 3 µg/mL,47.13%
same,% of DPPH˙ Scavenged,[2]; 5 µg/mL,68.90%
same,IC50,[2],3.26 µg/mL
same,"Chelation Capacity (%), ferrous ions",Fe^2+ chelation assay; 50 µg/mL,7.73%
same,"Chelation Capacity (%), ferrous ions",Fe^2+ chelation assay; 100 µg/mL,12.28%
same,"Chelation Capacity (%), ferrous ions",Fe^2+ chelation assay; 150 µg/mL,17.60%
same,"Chelation Capacity (%), ferrous ions",Fe^2+ chelation assay; 200 µg/mL,22.64%
same,Iox (μA),"[3]; compound + DPPH, 30 min",11.18 μA
same,Eox (V),[3]; [7],0.311 V
same,Eox (V),[3]; [9],0.455 V
same,Iox (μA),[3]; [10],20.68 μA
same,Eox (V),"[3]; compound + DPPH, 30 min, 4th Eox column",0.908 V
same,Iox (μA),"[3]; compound + DPPH, 30 min, 4th Iox column",6.39 μA
same,Eox (V),[3]; [11],0.188 V
same,Iox (μA),[3]; [12],11.53 μA
same,Iox (μA),[3]; compound alone,6.97 μA
same,Eox (V),[3]; [13],0.193 V
same,Iox (μA),[3]; [14],3.56 μA
same,Eox (V),"[3]; compound alone, 2nd Eox",0.325 V
same,Ered (V),[3]; [8],0.278 V
same,Ired (μA),"[3]; compound alone, 2nd Ired",−18.04 μA
same,Eox (V),"[3]; compound alone, 3rd Eox column",0.459 V
same,Iox (μA),"[3]; compound alone, 3rd Iox column",22.39 μA
same,Eox (V),"[3]; compound alone, 4th Eox column",0.935 V
same,Iox (μA),"[3]; compound alone, 4th Iox column",6.88 μA
same,Eox (V),[4]; 1st oxidation peak,0.174 V
same,Iox (μA),[4]; 1st oxidation peak,21.51 μA
same,Eox (V),[4]; 2nd oxidation peak,0.386 V
same,Iox (μA),[4]; 2nd oxidation peak,37.08 μA
same,Ered (V),[4]; 2nd reduction peak,0.101 V
same,Ired (μA),[4]; 2nd reduction peak,−4.79 μA
same,Eox (V),[4]; 3rd oxidation peak,0.520 V
same,Iox (μA),[4]; 3rd oxidation peak,4.87 μA
same,Ered (V),[4]; 3rd reduction peak,0.335 V
same,Ired (μA),[4]; 3rd reduction peak,−38.91 μA
"Cl.Oc1ccc(/C=N/Nc2nc(-c3ccc(O)c(O)c3)cs2)c(O)c1 [Compound 8b, (E)-2-(2,4-dihydroxybenzylidene)-1-(4-(3,4-dihydroxyphenyl)thiazol-2-yl)hydrazin-1-ium chloride]",% of NO˙ Scavenged,[1],46.30%
same,% of DPPH˙ Scavenged,[2]; 1 µg/mL,39.38%
same,% of DPPH˙ Scavenged,[2]; 1.5 µg/mL,47.41%
same,% of DPPH˙ Scavenged,[2]; 2 µg/mL,54.37%
same,% of DPPH˙ Scavenged,[2]; 3 µg/mL,67.84%
same,% of DPPH˙ Scavenged,[2]; 5 µg/mL,91.38%
same,IC50,[2],1.72 µg/mL
same,"Chelation Capacity (%), ferrous ions",Fe^2+ chelation assay; 50 µg/mL,10.74%
same,"Chelation Capacity (%), ferrous ions",Fe^2+ chelation assay; 100 µg/mL,18.15%
same,"Chelation Capacity (%), ferrous ions",Fe^2+ chelation assay; 150 µg/mL,25.06%
same,"Chelation Capacity (%), ferrous ions",Fe^2+ chelation assay; 200 µg/mL,33.38%
same,Ered (V),[3]; [5],0.259 V
same,Ired (μA),[3]; [6],−14.96 μA
same,Eox (V),[3]; [9],0.457 V
same,Iox (μA),[3]; [10],18.63 μA
same,Eox (V),[3]; [11],0.247 V
same,Iox (μA),[3]; [12],17.56 μA
same,Eox (V),[3]; [13],0.259 V
same,Iox (μA),[3]; [14],10.92 μA
same,Ered (V),[3]; [8],0.127 V
same,Ired (μA),"[3]; compound alone, 2nd Ired",−3.52 μA
same,Eox (V),"[3]; compound alone, 3rd Eox column",0.47 V
same,Iox (μA),"[3]; compound alone, 3rd Iox column",29.61 μA
same,Eox (V),[4]; 1st oxidation peak,0.166 V
same,Iox (μA),[4]; 1st oxidation peak,2.19 μA
same,Eox (V),[4]; 2nd oxidation peak,0.508 V
same,Iox (μA),[4]; 2nd oxidation peak,40.99 μA
same,Ered (V),[4]; 3rd reduction peak,0.325 V
same,Ired (μA),[4]; 3rd reduction peak,−40.37 μA
